Assays:
TNF-α-induced SIRS = assay: TNF-α-induced systemic inflammatory response syndrome (SIRS) in mice; type: in vivo, mouse; conditions: 5 mg/kg i.v. 15 min before mTNF-α 0.38 mg/kg; C57BL/6J mice
From the text: To confirm that the screening strategy leads to hits functionally active in vivo, we tested one of the hits for its ability to protect against RIPK-driven inflammation in TNF-α-induced systemic inflammatory response syndrome (SIRS). This mouse model of sterile sepsis[32] is dependent on RIPK1 and RIPK3 kinase activity and independent of apoptosis and inflammasome activity.
Representative blots and quantification of p-RIPK3/RIPK3 and p-MLKL/MLKL ratios in fold-change from control. Blots were normalized to endogenous β-actin.
Nec-1 was positive control for TNF-induced SIRS protection. Body temperature and mortality were monitored up to 96 h. Further details are provided as Supplementary Information.
Animal studies, injections and monitoring. Male C57BL/6J mice with 18-26 g (Charles River Laboratories International, Inc., Wilmington, MA, USA) were used at the age of 8-14 weeks. Five to seven animals were included in each experimental group. All animal experiments were carried out with the permission of local animal ethical committee in accordance with the EU Directive (2010/63/EU), Portuguese laws (DL113/2013, 2880/2015, 260/2016) and all relevant legislations. Animals received humane care in a temperature-controlled environment with a 12 h light-dark cycle and ad libitum access to pelleted chow and water, complying with the Institute’s guidelines, and as outlined in the “Guide for the Care and Use of Laboratory Animals” prepared by the National Academy of Sciences and published by the National Institutes of Health (NIH publication 86-23 revised 1985). […] Nec-1 was diluted as follows (v/v): 48% PBS 1X, 17% DMSO and 35% PEG 400. […] All injections were administered intravenously (i.v.) in 100 µL volume each. Body temperature was recorded on mice pre-shaven back using a non-contact infrared thermometer suitable for animal use (BIO-IRB153; BioSeb, Vitrolles, France). Body temperature and mortality were monitored up to 96 h. Animals were euthanized by inhalative induction of narcosis with isoflurane at the end of the experiment, or at humane endpoints according to the Clinical Severity Score ^59.

[1] = Caco-2 cell-based permeability assay; type: in vitro ADME; conditions: human
[2] = Mouse pharmacokinetics, i.v.; type: in vivo; conditions: plasma, iv, male C57BL/6J mice, 5 mg/kg i.v.; for AUC: read-out: Mouse AUC (in vivo); for Cmax: read-out: Mouse Cmax (in vivo); for clearance: read-out: Mouse clearance (in vivo) rate; for half-life: read-out: Mouse half-life (in vivo) T1/2 (converted); for Tmax: read-out: Tmax (in vivo)
Experimental: Pharmacokinetic measurements. Pharmacokinetic studies were performed in male C57BL/6J mice by Pharmaron (Pharmaron Beijing Co Ltd, Beijing, China). Compound (5 mg/kg body weight) was administered intravenously in vehicle (57% PBS, 32% DMSO, 4% PEG 400, 3% ethanol, 4% Tween 80). Blood samples obtained postdosing were collected in plastic microcentrifuge tubes containing EDTA-K2 and centrifuged at 4000 × g for 5 min to obtain plasma. The concentration of compound in plasma samples was determined using a liquid chromatography-tandem mass spectrometry (LC-MS/MS) method by monitoring transition from m/z 541 to 383 in ESI-positive mode. PK parameters were calculated by non-compartmental model using Phoenix WinNonlin v. 6.1 (Pharsight Corp, Certara, St. Louis, MO, USA).

| Structure (SMILES) | Survival in TNF-α-induced SIRS (TNF-α-induced SIRS) | TNF-α shock-associated hypothermia (body temperature) (TNF-α-induced SIRS) | efflux ratio [1] | Papp A→B [1] | Papp B→A [1] | AUC [2] | Cmax [2] | clearance [2] | half-life [2] | Tmax [2] |
| --- | --- | --- | --- | --- | --- | --- | --- | --- | --- | --- |
| CN1C(=O)C(Cc2c[nH]c3ccccc23)NC1=S (stereo not shown) [Nec-1, necrostatin-1] | all survived | fully protected from hypothermia | 0.36 | 380 nm/s | 140 nm/s | 3210 nM·h | 11.3 µM | 6.06 L/h/kg | 26.4 min | 1.8 min |
| O=C(c1cnn(Cc2ccccc2)c1)N1CCOc2ccccc2C1 [SN-6109] | ~50% | gradually recovered their basal temperature in 48 h post-injection | – | 310 nm/s | 160 nm/s | 2340 nM·h | 10.2 µM | 6.42 L/h/kg | 18.6 min | 1.8 min |

From PMC7026080, “Phenotypic high-throughput screening platform identifies novel chemotypes for necroptosis inhibition” (Cell Death Discovery, 2020)
